Read-outs that look alike come from different tables or passages of the source.
Columns and labels:
[1] = test system: MEFs; details: OSKM, cited from earlier work
[2] = test system: human Nanog promoter; test: Nanog-luc luciferase reporter assay (stably transfected CV1 cells); type: cell-based; details: for induction of Nanog-luc, comparison with known reprogramming enhancers (in words): OAC1 1 μM, BIO 2 μM, BIX 2 μM, AzaC 2 μM, Vc 25 μg/ml, Am580 10 nM, tranylcypromine 5 μM, VPA 0.5 mM, two days; for Nanog-luc fold Induction / fold induction at 1 µM: compound at 1 μM, Nanog-luc cells, triplicates; for fold induction at 1 µM: Chlorocebus aethiops, CV-1
Method: Oct4, Sox2, and Nanog form a positive regulatory loop to regulate the expression of each other, and Nanog is considered a downstream target gene of Oct4 and Sox2 (37). Therefore, activation of Nanog promoter was used as a validation assay for the identified compounds. Specifically, the Oct4 promoter-activating compounds were tested to ascertain whether they activate a human
Nanog promoter-driven luciferase reporter gene using in triplicate luciferase reporter assays.
(§1) Then the promoter sequences were cloned into pGL4.4-luc-Hyg vector (Promega) to get Oct4-luc or Nanog-luc construct and the fidelity of the Oct4 and Nanog promoter DNA sequences was confirmed by bi-directional sequencing. CV 1 cells were transfected with the Oct4-luc or Nanog-luc constructs and the stably-transfected cells were selected by hygromycine resistance.
(§2) Luciferase Reporter Assays: The Oct4-luc or Nanog-luc cells were treated with compound OAC 1 or its structural analogs at 1 μM concentration or at indicated concentrations in triplicates. Other compounds used include 2 μM BIO, 2 μM BIX, 2 μM
(§3) AzaC, 25 μg/ml Vc, 10 nM Am580, 5 μM tranylcypromine, and 0.5 mM VPA. Luciferase reporter assays were performed as described (51) 24 hr after compound treatment or at indicated time points. For Topflash reporter assays, 0.2 μg β-catenin-responsive Topflash reporter gene plasmid was introduced into CV1 cells using trasfection (Bio-Rad). Compounds were added 6 hr after transfection. Luciferase activity was measured 48 hr after compound treatment using the Glo Luciferase Assay System (Promega).

[3] = test system: human Oct4 promoter; test: Oct4-luc luciferase reporter assay (stably transfected CV1 cells); type: cell-based; details: for induction of Oct4-luc, comparison with known reprogramming enhancers (in words): OAC1 1 μM, BIO 2 μM, BIX 2 μM, AzaC 2 μM, Vc 25 μg/ml, Am580 10 nM, tranylcypromine 5 μM, VPA 0.5 mM, two days; for Oct4-luc Activity / Oct4-luc fold Induction / fold induction at 1 µM: compound at 1 μM, Oct4-luc cells, triplicates
Source text: A high-throughput screening scheme was designed to identify Oct4 promoter-activating compounds using a luciferase reporter under the control of the human Oct4 promoter (Oct4-luc). […] A stable cell line (Oct4-luc) that expresses luciferase reporter driven by the exogenous Oct4 promoter was established using hygromycin-resistance as a selection marker. These Oct4-luc cells were used for high-throughput screening of a chemical library of 80,000 compounds. The luciferase reporter activity was measured 24 hr after compound treatment. Solvent treatment was included as a negative control.
as §1
Compound Screening: The Oct4-luc cells were seeded at 1.75×10^4 cells per well density into 96-well plates. Compounds were added to cells one day after cell seeding at the concentration of 10 μM for 24 hr in the High-Throughput Screening core facility at City of Hope. Compounds that induced luciferase activity 3-fold or more were selected for further validation in both Oct4-luc and Nanog-luc cells.
as §2, §3

[4] = seeding 7,500, day 30, reference (5) Ichida 2009
[5] = Homo sapiens, CV-1, 24 h, read-out: Oct4-luc Activity
[6] = read-out: Oct4-luc fold Induction
[7] = seeding 5 × 10^4, day 25, reference (4) Lyssiotis 2009

Compound | Nanog-luc fold Induction [2] [fold] | Oct4-luc fold Induction [3] [fold] | Oct4-luc Activity [3] | also measured
Cc1cccc(-c2[nH]ncc2-c2ccc3ncccc3n2)n1 [RepSox2] |  |  |  | Colony numbers [1, 4]: 7.5; Reprogramming efficiency [1, 4]: 0.1%
O=C1O[C@H]([C@@H](O)CO)C(O)=C1O [Vc, Vitamin C, reference compound] |  |  |  | induction of Nanog-luc, comparison with known reprogramming enhancers (in words) [2]: no significant effect; induction of Oct4-luc, comparison with known reprogramming enhancers (in words) [3]: no significant effect
N[C@@H]1C[C@H]1c1ccccc1 (racemic) [tranylcypromine, reference compound] |  |  |  | induction of Nanog-luc, comparison with known reprogramming enhancers (in words) [2]: no significant effect; induction of Oct4-luc, comparison with known reprogramming enhancers (in words) [3]: no significant effect
Nc1ccc(C(=O)Nc2ccc3[nH]ncc3c2)cc1 [Compound C39] |  |  |  | fold induction at 1 µM [2]: 1.55; fold induction at 1 µM [3, 5]: < 1.8; fold induction at 1 µM [3, 6]: 1.62
O=C1Cc2c([nH]c3ccc(Br)cc23)-c2ccccc2N1 [Kenpaullone, kenpaullone] |  |  |  | Colony numbers [1, 7]: 100; Reprogramming efficiency [1, 7]: 0.2%
CC(C)(C)OC(=O)Nc1ccc(C(=O)Nc2ccc3[nH]ncc3c2)cc1 [Compound C38] |  |  |  | fold induction at 1 µM [2]: 1.09; fold induction at 1 µM [3, 5]: < 1.8; fold induction at 1 µM [3, 6]: 1.2
O=C(Nc1ccc2[nH]ncc2c1)c1cc(F)c(F)cc1Cl [Compound C35] |  |  |  | fold induction at 1 µM [2]: 1.24; fold induction at 1 µM [3, 5]: < 1.8; fold induction at 1 µM [3, 6]: 1.15
CC(C)(C)OC(=O)NCc1ccc(C(=O)Nc2ccc3[nH]ncc3c2)cc1 [Compound C40] |  |  |  | fold induction at 1 µM [2]: 0.96; fold induction at 1 µM [3, 5]: < 1.8; fold induction at 1 µM [3, 6]: 0.97

The next lines start with results.

Nanog-luc fold Induction [2] [fold] | Oct4-luc fold Induction [3] [fold] | Compound | Oct4-luc Activity [3] | also measured
1.1 | 1.0 | CCOc1ccc(C(=O)Nc2ccc3[nH]ncc3c2)cc1OCC [Compound C30] | + (molecules that induce Oct4-luc less than 1.8-fold were indicated as “+”) | 
4.5 | 4.49 | O=C(Nc1ccc2[nH]ncc2c1)c1ccc(Br)cc1 [OAC18] | ++ (Compounds that induce Oct4-luc 1.8-fold or more were classified as “++”) | 
1.1 | 1.1 | Cc1ccc(C(=O)Nc2ccc3[nH]cc(C#N)c3c2)cc1 [Compound C17] | + (molecules that induce Oct4-luc less than 1.8-fold were indicated as “+”) | 
1.6 | 1.5 | COc1ccccc1C(=O)Nc1ccc2[nH]ncc2c1 [Compound C25] | + (molecules that induce Oct4-luc less than 1.8-fold were indicated as “+”) | 
2.0 | 2.2 | O=C(Nc1ccc2[nH]ncc2c1)c1ccc(F)cc1 [OAC7] | ++ (Compounds that induce Oct4-luc 1.8-fold or more were classified as “++”) | 
1.6 | 1.5 | O=C(Nc1ccc2[nH]ncc2c1)c1ccccc1Br [Compound C24] | + (molecules that induce Oct4-luc less than 1.8-fold were indicated as “+”) | 
2.6 | 2.7 | CCOc1cccc(C(=O)Nc2ccc3[nH]ncc3c2)c1 [OAC14] | ++ (Compounds that induce Oct4-luc 1.8-fold or more were classified as “++”) | 
1.2 | 1.3 | O=C(Nc1ccc2[nH]ncc2c1)c1cccc(F)c1 [Compound C18] | + (molecules that induce Oct4-luc less than 1.8-fold were indicated as “+”) | 

Reference: US8962322B2, “Enhancers of induced pluripotent stem cell reprogramming” (City of Hope, priority 2012, dated 2015)
